Measurements as given in patent US20250302775A1, “METHODS FOR THE TREATMENT OF DEPRESSION” (Autobahn Therapeutics, Inc., priority 2022, published 2025).

Columns and labels:
recombinant human FAAH = target: T1, recombinant human FAAH (Homo sapiens, UniProt O00519); assay: FAAH inhibition, apparent IC50 with AMC substrate; format: biochemical; conditions: 30 min preincubation with recombinant human FAAH and AMC; read-out: Apparent IC50s
T1 sequence (O00519 1-579): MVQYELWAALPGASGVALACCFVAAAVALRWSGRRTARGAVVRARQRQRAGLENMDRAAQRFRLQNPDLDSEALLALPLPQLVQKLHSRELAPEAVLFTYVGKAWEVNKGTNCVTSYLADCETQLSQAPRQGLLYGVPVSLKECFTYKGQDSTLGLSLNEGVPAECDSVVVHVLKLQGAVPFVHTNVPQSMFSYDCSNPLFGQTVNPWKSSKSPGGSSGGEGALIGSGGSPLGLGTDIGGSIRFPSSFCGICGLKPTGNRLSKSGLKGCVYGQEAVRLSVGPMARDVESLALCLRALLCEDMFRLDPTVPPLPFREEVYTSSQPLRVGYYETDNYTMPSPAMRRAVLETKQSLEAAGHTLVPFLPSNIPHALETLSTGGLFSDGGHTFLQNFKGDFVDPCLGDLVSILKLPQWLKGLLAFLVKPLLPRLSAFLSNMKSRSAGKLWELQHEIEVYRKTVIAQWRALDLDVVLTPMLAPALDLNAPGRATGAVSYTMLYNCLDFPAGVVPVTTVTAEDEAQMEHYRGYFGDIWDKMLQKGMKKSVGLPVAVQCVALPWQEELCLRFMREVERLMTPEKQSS

FAAH = target: T2, FAAH (Mus musculus, UniProt O08914); assay: tissue distribution in mice after co-dosing ABX-002 with or without PFI or GFI; format: in vivo; conditions: for Distribution: peripheral or global FAAH inhibitor
T2 construct: from tissue; host or cells: living mice (plasma, liver, brain)
T2 sequence (O08914 1-579): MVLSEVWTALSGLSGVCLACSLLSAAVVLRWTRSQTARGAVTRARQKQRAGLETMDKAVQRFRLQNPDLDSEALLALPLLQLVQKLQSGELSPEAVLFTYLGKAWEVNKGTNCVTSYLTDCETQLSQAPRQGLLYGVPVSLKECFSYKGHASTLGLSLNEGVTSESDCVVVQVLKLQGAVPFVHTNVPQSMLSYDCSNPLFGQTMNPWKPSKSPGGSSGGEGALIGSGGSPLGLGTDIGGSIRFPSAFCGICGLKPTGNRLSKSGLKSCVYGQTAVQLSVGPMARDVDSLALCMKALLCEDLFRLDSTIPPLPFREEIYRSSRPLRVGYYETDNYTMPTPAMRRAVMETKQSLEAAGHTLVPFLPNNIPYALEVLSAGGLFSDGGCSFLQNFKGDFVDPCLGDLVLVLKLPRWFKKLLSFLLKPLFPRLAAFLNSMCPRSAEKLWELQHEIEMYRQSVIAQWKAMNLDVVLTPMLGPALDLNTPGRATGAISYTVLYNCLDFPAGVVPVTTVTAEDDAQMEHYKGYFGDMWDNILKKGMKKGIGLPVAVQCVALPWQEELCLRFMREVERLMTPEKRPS
Protocol: The ability of globally-penetrant and peripherally-restricted FAAH inhibitors (GFI & PFI, respectively) to alter distribution of ABX-002 and ABX-002A was assessed.
Table 5 depicts the inhibition of active metabolite (LL-650177 or PF-044578454) in AUC in the plasma, liver, and brain after prodrug (ABX-002) co-dosing. Tissue distribution studies in mice confirm global & peripheral inhibition of FAAH.

[1] = test system: T3-responsive target genes; assay: expression of T3-responsive target genes in brain, rat cuprizone model; format: in vivo; conditions: 21 day repeat administration; LL-341070 30 or 100 μg/kg, T3 300 μg/kg; Nanostring
[2] = tissue distribution (TD) assay in mouse, brain and plasma; format: in vivo, male C57BL/6 mouse; conditions: for AUC: male, C57BL/6, mouse, plasma, po, 100 ug/kg; for Brain AUC: single PO 100 μg/kg, male C57BL/6 mouse, AUC 0-24 hr
[3] = target: T3, recombinant human FAAH (rhFAAH) (Homo sapiens, UniProt O00519); assay: FAAH substrate evaluation: formation of acid metabolite; format: biochemical; conditions: 0.5 ng/μL rhFAAH, 1 μM test compound, room temperature, pH 8.0, 0-60 minutes
T3 construct: purchased Cayman Chemical (Ann Arbor, MI, USA)
T3 sequence (O00519 1-579): T1 sequence (O00519 1-579)
Protocol: Purified recombinant human FAAH (rhFAAH) was purchased from Cayman Chemical (Ann Arbor, MI, USA). The total volume for each incubation was 400 μL containing a final 0.5 ng/μL rhFAAH, 1 μM test compound, 1.25% ethanol or 1 μM PF-3845 (FAAH inhibitor), and 0.1% bovine serum albumin in Tris-EDTA buffer at pH 8.0). The positive control was LL-341001. The incubation was conducted at the room temperature. At 0, 5, 15, 30 and 60 minutes, an aliquot of 30 μL reaction mixtures was removed and mixed with 300 μL acetonitrile containing 5 ng/mL terfenadine and 10 ng/mL tolbutamide as internal standards to quench the reaction. The resulting mixture was centrifuged at 4000 rpm, 4° C. for 15 minutes, and 100 μL supernatant was ready for LC-MS/MS analysis to measure the formation of acid metabolite.
Acquity Ultra Performance LC system from Waters was used for sample analysis. The chromatography was performed on a reverse phase Kinetex 2.6 μm C18 column, 2.1×30 mm, 100 Å. The mobile phase A comprised of 0.1% formic acid in water and mobile phase B comprised of 0.1% formic acid in acetonitrile with a 2-min run time at the flow rate of 0.8 mL/min for the acid metabolite from positive control or a 1.5 min run time at the flow rate of 0.9 mL/min for the acid metabolite of test compounds. The mass spectrometer (API-5500 and API Q Trap 4000 Applied Biosystems/MDS SCIEX Instruments, Framingham, MA, USA) was operated under ESI positive or negative ion MRM mode.
The formation of acid metabolite was monitored and quantified using one calibration point of 1 μM. The observed rate constant (ke) for the acid metabolite formation was calculated by plotting the metabolite concentration versus time of incubation with the slope being ke and is shown in Table 1.

[4] = test system: T3-responsive target genes; assay: expression of T3-responsive target genes in brain, single PO administration; format: in vivo, male C57BL/6 mouse; conditions: LL-341070 about 0.1 to about 300 μg/kg, T3 about 300 μg/kg
[5] = brain and plasma concentration in rat cuprizone model after 21 days repeat administration; format: in vivo; conditions: 21 days repeat administration 30 or 100 μg/kg, 4 hours post-final dose
Protocol: In vivo brain exposure of active compound compared to prodrug was assessed via tissue distribution (TD) assay in mouse and rat cuprizone model, measured as brain exposure ratio of brain to plasma following thyromimetic treatment. […] Table 3 also depicts brain-to-plasma AUC ratio.

[6] = after prodrug (ABX-002) co-dosing, mice

O=C(Nc1cccnn1)N1CCC(=Cc2cccc(Oc3ccc(C(F)(F)F)cn3)c2)CC1 [PF-04457845]
IC50 (recombinant human FAAH): 3 nM
inhibition of active metabolite AUC, Brain (FAAH; [6]): 83%
inhibition of active metabolite AUC, Liver (FAAH; [6]): 94%
inhibition of active metabolite AUC, Plasma (FAAH; [6]): 94%
Distribution (FAAH): Global

CNC(=O)COc1cc(Cl)c(Cc2ccc(O)c(C(C)C)c2F)c(Cl)c1 [Compound 31]
expression of T3-responsive genes in brain [1]: expression increase was confirmed
AUC [2]: 18.8 ng·h/mL
Brain AUC [2]: 10.9 ng·h/mL
ke (observed rate constant for the acid metabolite formation) [3]: A (A = ke is more than or equal to 0.1)
expression of Hr, Dio3, Klf9 in brain [4]: increases expression of Hr, Dio3, Klf9

CC(C)c1c(O)ccc(Cc2c(Cl)cc(OCC(=O)O)cc2Cl)c1F [LL-341070A]
AUC [2]: 35.8 ng·h/mL
Brain AUC [2]: 73.9 ng·h/mL
brain exposure compared to prodrug LL-341070 [5]: enhanced brain exposure

CNC(=O)COc1cc(Cl)c(Cc2ccc(O)c(C(C)C)c2)c(Cl)c1 [Compound 1]
ke (observed rate constant for the acid metabolite formation) [3]: A (A = ke is more than or equal to 0.1)
prodrug levels in plasma, liver and brain with FAAH inhibition (FAAH; co-dosing with PFI or GFI, mice): did not change or slightly increased

NC(=O)c1cccc(-c2cc(OC(=O)NC3CCCCC3)ccc2O)c1 [URB937]
IC50 (recombinant human FAAH): 69 nM
Distribution (FAAH): Peripheral

CC(C)c1cc(Cc2c(Cl)cc(OCC(=O)NCCN)cc2Cl)ccc1O [Compound 12]
ke (observed rate constant for the acid metabolite formation) [3]: B (B = ke is less than 0.1 and more than 0)

COc1ccc(NC(=O)COc2cc(Cl)c(Cc3ccc(O)c(C(C)C)c3)c(Cl)c2)nn1 [Compound 113]
ke (observed rate constant for the acid metabolite formation) [3]: A (A = ke is more than or equal to 0.1)

CC(C)c1cc(Cc2c(Cl)cc(OCC(=O)N(C)C)c(F)c2Cl)ccc1O [Compound 38]
ke (observed rate constant for the acid metabolite formation) [3]: B (B = ke is less than 0.1 and more than 0)

CC(C)c1c(O)ccc(Cc2c(Cl)cc(OCC(=O)Nc3ccncn3)cc2Cl)c1F [Compound 110]
ke (observed rate constant for the acid metabolite formation) [3]: A (A = ke is more than or equal to 0.1)
